{"source": "patent US4673665A", "about": "“Process for treating anestrus in ewes or beef cattle” (Hoechst Aktiengesellschaft, priority 1982, dated 1987)", "key": {"monkey": {"system": "monkey", "conditions": "continuous intravenous injection of LH-RH; cited from earlier work"}, "beef cows [1]": {"system": "beef cows", "experiment": "Example 2: LH-RH injections at 2 hourly intervals or constant infusion in early post-partum beef cows; progesterone and LH level", "format": "in vivo, beef cattle", "conditions": "for No. showing progesterone rise: 2 to 4 days", "protocol": "17 Beef cows were injected with 1.0, 2.5 and 5.0 μg of LH-RH, respectively, in the early post-partum period during 2 to 4 days at 2 hourly intervals, while 21 beef cows were given a constant infusion of identical dosage per unit of time during the same period of time.\nBlood samples were taken prior to and during the treatments to determine the LH level. Blood samples for determining the progesterone level were taken during a prolonged period of time after the treatment."}, "beef cows [2]": {"system": "beef cows", "experiment": "Example 3: PRID progesterone device for 8 days, then constant LH-RH infusion in post-partum beef cows; ovulation", "format": "in vivo, beef cattle", "conditions": "PRID for 8 days, then LH-RH constant infusion 2.5 μg/2 h; 5 beef cows", "protocol": "5 Beef cows were treated in the early post-partum period over a period of 8 days by inserting in them an intravaginal device (PRID® of the firm Abbott) containing progesterone. Following withdrawal of the device a LH-RH constant infusion in doses of 2.5 μg/2 h was carried out in the manner described in Example 2. Ovulation occurred during the treatment in all cows, said ovulation being characterized by an increase in the progesterone plasma level."}, "sheep [3]": {"system": "sheep", "conditions": "i.v. injections of 250, 500 and 1,000 ng LH-RH at 2 hourly intervals over 8 days, no gestagen pretreatment; cited from earlier work"}, "sheep [4]": {"system": "sheep", "conditions": "14-day s.c. progesterone implant, then 250 ng LH-RH at 2 hourly intervals for 48 hours, cited from earlier work"}, "female mature ewes": {"system": "female mature ewes", "experiment": "Example 1: progesterone implant pretreatment, then constant LH-RH infusion in ewes; mating, ovulation (laparoscopy), pregnancy", "format": "in vivo, sheep (Clun Forest, Welsh Halfbred)", "conditions": "for number of ovulations: laparoscopy", "protocol": "Implants containing progesterone were administered subcutaneously to 28 female mature ewes of two different breeds (\"Clun Forest\" and \"Welsh Halfbred\") for a period of 14 days. 12 Ewes were infused constantly with 125 to 250 ng of LH-RH per hour over a period of 48 hours 2 hours before withdrawing the implants. Four ewes treated with a saline solution served as a control. The sheep were examined by laparoscopy to test them for ovulation, moreover blood samples were taken to determine the progesterone level. 24 hours after starting the infusions, onset of estrus was observed using fertile rams at 4 hourly intervals and the ewes in estrus were mated."}, "[5]": {"conditions": "125 ng of LH-RH/h constant infusion for 48 h after 14-day progesterone implant"}, "[6]": {"conditions": "250 ng LH-RH/h constant infusion for 48 h after 14-day progesterone implant"}}, "data": [{"substance": "LH-RH: LH/FSH-releasing hormone, provokes release of LH and FSH from the pituitary gland", "values": [{"measurement": "pulsed LH release followed by induction of menstrual cycle and ovulation", "setting": "monkey", "result": "failed"}, {"measurement": "plasma LH concentrations during treatment phase compared to pretreatment phase", "setting": "beef cows [1]; all test animals, irrespective of mode of administration and dose (1.0, 2.5, 5.0 μg)", "result": "distinct increase"}, {"measurement": "No. showing progesterone rise", "setting": "beef cows [1]; constant infusion 1.0 μg/2 h, total 6 + 3 cows", "result": 2}, {"measurement": "number of animals that responded (progesterone rise)", "setting": "beef cows [1]; constant infusion 1.0 μg/2 h, the 3 cows with calvings in summer", "result": 2}, {"measurement": "response (progesterone rise)", "setting": "beef cows [1]; constant infusion 1.0 μg/2 h, the 6 cows treated after spring calvings", "result": "did not respond"}, {"measurement": "No. showing progesterone rise", "setting": "beef cows [1]; constant infusion 2.5 μg/2 h, total 6 cows", "result": 4}, {"measurement": "No. showing progesterone rise", "setting": "beef cows [1]; constant infusion 5.0 μg/2 h, total 6 cows", "result": 4}, {"measurement": "No. showing progesterone rise", "setting": "beef cows [1]; injections at 2 hourly intervals, 1.0 μg, total 6 cows", "result": 4}, {"measurement": "No. showing progesterone rise", "setting": "beef cows [1]; injections at 2 hourly intervals, 2.5 μg, total 6 cows", "result": 4}, {"measurement": "No. showing progesterone rise", "setting": "beef cows [1]; injections at 2 hourly intervals, 5.0 μg, total 5 cows", "result": 4}, {"measurement": "cows in which ovulation occurred during the treatment (increase in progesterone plasma level)", "setting": "beef cows [2]", "result": "all cows"}, {"measurement": "induction of estrus", "setting": "sheep [3]", "result": "could not be induced"}, {"measurement": "number of bred sheep that became pregnant", "setting": "sheep [4]; 5 bred sheep", "result": 3}, {"measurement": "estrus and ovulation", "setting": "sheep [4]; 5 sheep", "result": "induced"}, {"measurement": "rate of ovulations", "setting": "female mature ewes; [5]", "result": 1.4}, {"measurement": "number of ovulations", "setting": "female mature ewes; [5]", "result": 9}, {"measurement": "number of mated sheep", "setting": "female mature ewes; 125 ng of LH-RH/h constant infusion for 48 h after 14-day s.c. progesterone implant", "result": 10}, {"measurement": "rate of ovulations", "setting": "female mature ewes; [6]", "result": 1.5}, {"measurement": "number of ovulations", "setting": "female mature ewes; [6]", "result": 12}, {"measurement": "number of mated sheep", "setting": "female mature ewes; 250 ng LH-RH/h constant infusion for 48 h after 14-day s.c. progesterone implant", "result": 11}, {"measurement": "pregnancy rate", "setting": "female mature ewes; ewes treated with LH-RH after progesterone implant and mated", "result": 75, "unit": "%"}]}]}
